# From PubChem BioAssay AID1918993 (Molecular Pharmacology Branch, DTP, NCI, 2023)
# Test system: 233499-124-R-J3-PDC complex spheroid growth
# Test: Anticancer human tumor 233499-124-R-J3-PDC patient-derived colon adenocarcinoma cell line growth inhibition [AhR]
# Settings: for IC50: curve of first compound; for viability, T/C: stronger effect = lower value
# Source text: Multicellular complex tumor spheroid response to aryl hydrocarbon receptor antagonists in combination with a variety of drugs and investigational agents in selected tumor cell lines
# The current study was undertaken to assess response to aryl hydrocarbon receptor antagonists in combination with standard-of-care drugs and investigational agents in solid tumor complex spheroid models. Complex spheroids include a stromal component modeled by human endothelial cells (HUVEC) and fibroblasts modeled by human mesenchymal stem cells (MSCs). The concentration ranges selected for each drug and investigational agent were based upon clinically achievable concentrations if the clinical Cmax of the agent was known.
# Compounds. The drugs and investigational agents: BAY 2416964 (NSC825713), GNF351 (NSC835774), CH-223191 (NSC835775), CPI-455 (NSC825282), aza-TdCyd (NSC777586), decitabine (NSC127716), belinostat (NSC758774), entinostat (NSC756642), pevonedistat (NSC761192), tazemetostat (NSC777109), talazoparib (NSC765396), olaparib (NSC753686), selinexor (NSC780203), nedisertib (M3814, NSC802822), bortezomib (NSC756655), venetoclax (NSC766270), doxorubicin (NSC123127), elimusertib (BAY189344, NSC800525), ceralasertib (AZD6738, NSC777638), TAK-243 (NSC785004), alisertib (NSC759677), etoposide (NSC141540), topotecan (NSC609699), eribulin (NSC707389), gemcitabine (NSC613327), carboplatin (NSC241240), cisplatin (NSC119875), and SN-38 (NSC673596) were obtained from the National Cancer Institute (NCI) Developmental Therapeutics Program Chemical Repository (32). The FDA-approved anticancer drug set is available from the Developmental Therapeutics Program at https://dtp.cancer.gov/organization/dscb/obtaining/available plates.htm. […] The stock solutions were prepared in dimethyl sulfoxide (DMSO, Sigma-Aldrich, St. Louis, MO, cat. D2650), except for the platinum compounds which were prepared in saline (Quality Biological, Gaithersburg, MD, cat. 114-055-101), at 800-fold the tested concentration and stored at -70 degrees C prior to their use. All drugs and investigational agents were tested over a range starting from a high concentration at or near the clinical Cmax and decreasing in half-log increments. If the clinical Cmax for an agent had not been determined, the highest concentration tested was 10 microM (Table 1).
# Cell Culture. All cells were maintained in an incubator at 37 degrees C and 5% CO2 with 95% humidity. The PDC lines were cultured according to standard operating procedures established by the NCI PDMR (https://pdmr.cancer.gov). Briefly, all PDCs were thawed and cultured in Matrigel-coated flasks prepared with a working solution of 1X Ham's F-12 nutrient mix, without supplementation (Invitrogen, Waltham, MA, cat. 11765054), 100 U/mL penicillin-streptomycin (Invitrogen, cat. 15140122), and 2.5% Matrigel (Corning Inc., Corning, NY, cat. 354248) for the first three passages. All PDCs were cultured in complete DMEM/F-12 media containing advanced DMEM/F-12 (Invitrogen, cat. 12634028), 4.9% defined fetal bovine serum, heat inactivated (HyClone Laboratories Inc., Logan, UT, cat. SH30070.03HI), 389 ng/mL hydrocortisone (Sigma-Aldrich, cat. H4001), 9.7 ng/mL human EGF recombinant protein (Invitrogen, cat. PHG0313), 23.4 microg/mL adenine (Sigma-Aldrich, cat. A2786), 97.3 U/mL penicillin-streptomycin (Invitrogen, cat. 15140122), 1.9 mM L-glutamine (Invitrogen, cat. 25030081), and 9.7 microM Y-27632 dihydrochloride (Tocris Bioscience, Bristol, United Kingdom, cat. 1254). The PDCs were cultured in complete DMEM/F12 media without 10 microM Y-27632 dihydrochloride for at least two passages prior to the screen. The established cell lines NCI-H1341 and […] were cultured in DMEM/F-12, HEPES (Invitrogen, cat. 11330032), 5% defined fetal bovine serum (HyClone Laboratories Inc., cat. SH30070.03), ITS premix universal culture supplement [insulin (5 microg/mL), transferrin (5 microg/mL), and selenious acid (5 ng/mL)] […]
# 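Further: spheroids exposed to agents for seven days before reading.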
smiles,measurement,setting,value
CC1(C)CCC(CN2CCN(c3ccc(C(=O)NS(=O)(=O)c4ccc(NCC5CCOCC5)c([N+](=O)[O-])c4)c(Oc4cnc5[nH]ccc5c4)c3)CC2)=C(c2ccc(Cl)cc2)C1 + CC(CO)NC(=O)c1cc(-c2ccc(Cl)cc2)nn(-c2cnn(C)c2)c1=O,IC50,second compound 0.1 µM,6.82 µM
same,IC50,second compound 0.316 µM,7.05 µM
same,IC50,second compound 1 µM,6.78 µM
same,IC50,second compound 3.16 µM,6.62 µM
same,IC50,second compound 10 µM,6.5 µM
same,"viability, T/C","second compound 0.1 µM, first compound 0.0316 µM",99.8%
same,"viability, T/C","second compound 0.1 µM, first compound 0.1 µM",89.7%
same,"viability, T/C","second compound 0.1 µM, first compound 0.316 µM",97.5%
same,"viability, T/C","second compound 0.1 µM, first compound 1 µM",102%
same,"viability, T/C","second compound 0.1 µM, first compound 3.16 µM",108%
same,"viability, T/C","second compound 0.1 µM, first compound 10 µM",25.3%
same,"viability, T/C","second compound 0.316 µM, first compound 0.0316 µM",94.5%
same,"viability, T/C","second compound 0.316 µM, first compound 0.1 µM",91.2%
same,"viability, T/C","second compound 0.316 µM, first compound 0.316 µM",91.1%
same,"viability, T/C","second compound 0.316 µM, first compound 1 µM",90.7%
same,"viability, T/C","second compound 0.316 µM, first compound 3.16 µM",109%
same,"viability, T/C","second compound 0.316 µM, first compound 10 µM",30.4%
same,"viability, T/C","second compound 1 µM, first compound 0.0316 µM",97.4%
same,"viability, T/C","second compound 1 µM, first compound 0.1 µM",96.5%
same,"viability, T/C","second compound 1 µM, first compound 0.316 µM",90.7%
same,"viability, T/C","second compound 1 µM, first compound 1 µM",104%
same,"viability, T/C","second compound 1 µM, first compound 3.16 µM",103%
same,"viability, T/C","second compound 1 µM, first compound 10 µM",25.5%
same,"viability, T/C","second compound 3.16 µM, first compound 0.0316 µM",97.5%
same,"viability, T/C","second compound 3.16 µM, first compound 0.1 µM",92.1%
same,"viability, T/C","second compound 3.16 µM, first compound 0.316 µM",94.5%
same,"viability, T/C","second compound 3.16 µM, first compound 1 µM",106%
same,"viability, T/C","second compound 3.16 µM, first compound 3.16 µM",96.8%
same,"viability, T/C","second compound 3.16 µM, first compound 10 µM",23.8%
same,"viability, T/C","second compound 10 µM, first compound 0.0316 µM",79.2%
same,"viability, T/C","second compound 10 µM, first compound 0.1 µM",89.5%
same,"viability, T/C","second compound 10 µM, first compound 0.316 µM",86.8%
same,"viability, T/C","second compound 10 µM, first compound 1 µM",90.9%
same,"viability, T/C","second compound 10 µM, first compound 3.16 µM",92.9%
same,"viability, T/C","second compound 10 µM, first compound 10 µM",27.4%
CCc1c2c(nc3ccc(O)cc13)-c1cc3c(c(=O)n1C2)COC(=O)[C@]3(O)CC + CC(CO)NC(=O)c1cc(-c2ccc(Cl)cc2)nn(-c2cnn(C)c2)c1=O,IC50,second compound 0.1 µM,0.3 µM
same,IC50,second compound 0.316 µM,> 0.3 µM
same,IC50,second compound 1 µM,> 0.3 µM
same,IC50,second compound 3.16 µM,> 0.3 µM
same,IC50,second compound 10 µM,> 0.3 µM
same,"viability, T/C","second compound 0.1 µM, first compound 0.000949 µM",87.3%
same,"viability, T/C","second compound 0.1 µM, first compound 0.003 µM",98.9%
same,"viability, T/C","second compound 0.1 µM, first compound 0.00949 µM",73.4%
same,"viability, T/C","second compound 0.1 µM, first compound 0.03 µM",50.5%
same,"viability, T/C","second compound 0.1 µM, first compound 0.0949 µM",60.6%
same,"viability, T/C","second compound 0.1 µM, first compound 0.3 µM",55.1%
same,"viability, T/C","second compound 0.316 µM, first compound 0.000949 µM",108%
same,"viability, T/C","second compound 0.316 µM, first compound 0.003 µM",105%
same,"viability, T/C","second compound 0.316 µM, first compound 0.00949 µM",76.4%
same,"viability, T/C","second compound 0.316 µM, first compound 0.03 µM",56.2%
same,"viability, T/C","second compound 0.316 µM, first compound 0.0949 µM",57.9%
same,"viability, T/C","second compound 0.316 µM, first compound 0.3 µM",66.4%
same,"viability, T/C","second compound 1 µM, first compound 0.000949 µM",103%
same,"viability, T/C","second compound 1 µM, first compound 0.003 µM",94.4%
same,"viability, T/C","second compound 1 µM, first compound 0.00949 µM",80.5%
same,"viability, T/C","second compound 1 µM, first compound 0.03 µM",64.7%
same,"viability, T/C","second compound 1 µM, first compound 0.0949 µM",57.9%
same,"viability, T/C","second compound 1 µM, first compound 0.3 µM",62.5%
same,"viability, T/C","second compound 3.16 µM, first compound 0.000949 µM",92.8%
same,"viability, T/C","second compound 3.16 µM, first compound 0.003 µM",88.2%
same,"viability, T/C","second compound 3.16 µM, first compound 0.00949 µM",71.6%
same,"viability, T/C","second compound 3.16 µM, first compound 0.03 µM",58%
same,"viability, T/C","second compound 3.16 µM, first compound 0.0949 µM",72.8%
same,"viability, T/C","second compound 3.16 µM, first compound 0.3 µM",48.6%
same,"viability, T/C","second compound 10 µM, first compound 0.000949 µM",93.8%
same,"viability, T/C","second compound 10 µM, first compound 0.003 µM",70.4%
same,"viability, T/C","second compound 10 µM, first compound 0.00949 µM",77.9%
same,"viability, T/C","second compound 10 µM, first compound 0.03 µM",75.4%
same,"viability, T/C","second compound 10 µM, first compound 0.0949 µM",49.1%
same,"viability, T/C","second compound 10 µM, first compound 0.3 µM",59.7%
